Experimental data published in patent US8017124B2, “Use of DMBT1 for capturing sulphate and phosphate group exposing agents” (priority 2004, dated 2011).

Columns and labels:
[1] = system: Gram-positive S. mutans and Gram-negative E. coli bacteria; experiment: Peptide bacterial binding and aggregation studies; conditions: synthetic peptides
Method: For quantitative measurements of bacterial aggregation, we added 200 μl peptide stock solution (1 mg/ml in 10% DMSO) diluted with 300 μl TBS containing 0.1% v/v Tween 20 and 1 mM CaCl2 (TBS-TC) to 500 μl of the respective bacterial suspensions to obtain final peptide concentrations of […]. As controls, we used bacterial suspensions, to which 200 μl 10% (v/v %) DMSO in H2O and 300 μl TBS-TC were added. Bacterial aggregation was monitored by measuring the optical density at 700 nm in intervals of 1 min for 1 h in a spectrophotometer (UVICON 930, Kontron Instruments). For the semi-quantitative high-throughput competition assays, we first determined the allowed pH range for DMBT1pbs1-mediated aggregation of S. gordonii and E. coli by using TBS-TC adjusted with either HCl or NaOH. […] For monitoring competitive effects, we preincubated 20 μl of the DMBT1pbs1 stock solution (20 μg) with 20 μl of the respective substance solutions in 48-well microtiter plates at room temperature (RT) for 2 min. As reference served 20 μl 10% (v/v) DMSO solution in H2O mixed with 20 μl of the solvents of the respective substances. Afterwards, 100 μl of S. gordonii or E. coli (resuspended in TBS-TC or TBS-T, respectively, for the calcium-free assays) solution was added simultaneously to each well using a multichannel pipette. […]

HIV-gp120 = HIV-gp120 (Human immunodeficiency virus type 1 group M subtype B, UniProt P04578); conditions: S. gordonii binding to immobilized SRCRP2 in absence and presence of HIV-gp120
Excerpt: Left panel: peptide SRCRP2 (containing DMBT1pbs1) was immobilized on ELISA plates and bacterial binding (S. gordonii) was quantified in the absence and presence of different concentrations of HIV-gp120.

Sequence: GRVEVLYRGSW [DMBT1pbs1]
- bacterial binding and aggregation activity (Gram-positive and -negative bacteria) [1]: sufficient and necessary for interaction with Gram-positive and -negative bacteria
- HIV-gp120 binding activity (HIV-gp120): exerts HIV-gp120 binding activity
